Measurements published in US20120255051A1, “HERBICIDE TOLERANT PLANTS” (priority 2009, published 2012).
“And” between values parts separate entries of the source, which are not always exact repeats. Equal entries are not always repeated.

Tested on: Brassica plants comprising mutant AHAS alleles
Test: Field trial, pre-planting treatment (0, 10, 20, 30 g a.i./ha), two locations in Canada: ERG, EST1, EST2, PPTOX, VIG1, VIG2, VIG3 scores
Type: in vivo, Brassica napus
Settings: for vigor3 (VIG3) score, Av: Elite parent line plants
Text: Tests were set up and conducted to asses the growth and performance of plants comprising AHAS full knock-out alleles, and to further analyze the correlation between the presence of full knockout and missense AHAS genes in Brassica plants and plant growth and herbicide tolerance of the Brassica plants in the field. To this end, the Brassica plants identified in Example 1 and 2 were backcrossed two times with an elite parent line, and subsequently selfed twice to obtain homozygous plants (BC2S2). Plants were grown as row plots in a split plot design with three replicates (main plots=herbicide treatments, subplots=genotypes) at two locations in Canada. Treatment pre-planting was carried out on the soil about two days before sowing with a dose of 0 (treatment A), 10 (treatment B), 20 (treatment C) or 30 (treatment D) g a.i./ha of thiencarbazone methyl. Herbicide tolerance was measured by scoring for different parameters. The parameter emergence (ERG) was scored at the cotyledon stage on a scale 1-9, where 1 means late emergence and 9 means early emergence. Establishment was scored 14 days after sowing (EST1) and 21 days after sowing (EST2). Scores were from 1 to 9, where 1 is the worst establishment (least plants that emerged), and 9 is the best establishment (most plants emerged). Phytotoxicity (PPTOX) was determined after establishment. Plants were evaluated on a scale of 1 to 9, where 1=completely yellowing, 5=50% of plant is yellow and 9=no yellowing. The vigor scores (see above) were determined at 1-2 leaf stage (VIG1), 7 days after VIG1 (VIG2) and 14 days after VIG1 (VIG3). The average values (Av) and standard deviations (SD) of the scores for the different parameters are represented in Table 7a-g.
Further, the contribution of the knock-out allele to herbicide tolerance conferred by the missense allele was calculated. First, the scores were corrected for a possible effect of the growth per se, independent of herbicide treatment. To this end, the scores for treatments B, C and D were divided by the scores for treatment A for the same genotype and for the same parameter (corrected herbicide tolerance scores). Next, the effect of the knock-out allele to these corrected herbicide tolerance scores obtained by the missense allele was calculated. Therefore, the corrected herbicide tolerance scores for the missense—knock-out allele combination was divided by the corrected herbicide tolerance scores for the missense allele—wild-type combination. In case the knock-out allele has no effect on herbicide tolerance conferred by the missense allele, this ratio should be 1. In case the knock-out allele positively contributes to the herbicide tolerance conferred by the missense allele, this ratio should be higher than 1. The results for the contribution of the knock-out allele to herbicide tolerance conferred by the missense allele as calculated above are shown in table 8.

[1] = AHAS1 WT/AHAS3 HETO104, 10 g a.i./ha pre-planting (B), Location A
[2] = AHAS1 WT/AHAS3 HETO104, 10 g a.i./ha pre-planting (B), Location B
[3] = AHAS1 WT/AHAS3 HETO104, 20 g a.i./ha pre-planting (C), Location A
[4] = AHAS1 WT/AHAS3 HETO104, 20 g a.i./ha pre-planting (C), Location B
[5] = AHAS1 WT/AHAS3 HETO104, 30 g a.i./ha pre-planting (D), Location A
[6] = AHAS1 WT/AHAS3 HETO104, 30 g a.i./ha pre-planting (D), Location B
[7] = AHAS1 WT/AHAS3 HETO111, 10 g a.i./ha pre-planting (B), Location A
[8] = AHAS1 WT/AHAS3 HETO111, 10 g a.i./ha pre-planting (B), Location B
[9] = AHAS1 WT/AHAS3 HETO111, 20 g a.i./ha pre-planting (C), Location A
[10] = AHAS1 WT/AHAS3 HETO111, 20 g a.i./ha pre-planting (C), Location B
[11] = AHAS1 WT/AHAS3 HETO111, 30 g a.i./ha pre-planting (D), Location A
[12] = AHAS1 WT/AHAS3 HETO111, 30 g a.i./ha pre-planting (D), Location B
[13] = AHAS1 WT/AHAS3 WT, 10 g a.i./ha pre-planting (B), Location A
[14] = AHAS1 WT/AHAS3 WT, 10 g a.i./ha pre-planting (B), Location B
[15] = AHAS1 WT/AHAS3 WT, 20 g a.i./ha pre-planting (C), Location A
[16] = AHAS1 WT/AHAS3 WT, 20 g a.i./ha pre-planting (C), Location B
[17] = AHAS1 WT/AHAS3 WT, 30 g a.i./ha pre-planting (D), Location A
[18] = AHAS1 WT/AHAS3 WT, 30 g a.i./ha pre-planting (D), Location B
[19] = Elite parent line, 10 g a.i./ha pre-planting (B), Location A
[20] = Elite parent line, 10 g a.i./ha pre-planting (B), Location B
[21] = Elite parent line, 20 g a.i./ha pre-planting (C), Location A
[22] = Elite parent line, 20 g a.i./ha pre-planting (C), Location B
[23] = Elite parent line, 30 g a.i./ha pre-planting (D), Location A
[24] = Elite parent line, 30 g a.i./ha pre-planting (D), Location B
[25] = Elite parent line, treatment B 10 g a.i./ha pre-planting, Location A
[26] = Elite parent line, treatment B 10 g a.i./ha pre-planting, Location B
[27] = Elite parent line, treatment C 20 g a.i./ha pre-planting, Location A
[28] = Elite parent line, treatment C 20 g a.i./ha pre-planting, Location B
[29] = Elite parent line, treatment D 30 g a.i./ha pre-planting, Location A
[30] = Elite parent line, treatment D 30 g a.i./ha pre-planting, Location B
[31] = Location A, treatment B 10 g a.i./ha pre-planting, ratio >1 = positive contribution

## COC(=O)c1csc(C)c1S(=O)(=O)NC(=O)n1nc(OC)n(C)c1=O [thiencarbazone-methyl, methyl 4-[(4,5-dihydro-3-methoxy-4-methyl-5-oxo-1H-1,2,4-triazol-1-yl)carbonylsulfamoyl]-5-methylthiophene-3-carboxylate]
[1]
  phytotoxicity (PPTOX) score, Av: 1.33
  vigor1 (VIG1) score, Av: 1.33
  vigor2 (VIG2) score, Av: 1.00
[2]
  establishment (EST2) score, Av: 3.33
  phytotoxicity (PPTOX) score, Av: 1.33
  vigor2 (VIG2) score, Av: 1.33
[3]
  establishment (EST2) score, Av: 1.00
  phytotoxicity (PPTOX) score, Av: 1.00
  vigor1 (VIG1) score, Av: 1.00
  vigor2 (VIG2) score, Av: 1.00
[4]
  establishment (EST2) score, Av: 2.33
  phytotoxicity (PPTOX) score, Av: 1.00
  vigor1 (VIG1) score, Av: 1.33
  vigor2 (VIG2) score, Av: 1.00
[5]
  establishment (EST2) score, Av: 1.00
  phytotoxicity (PPTOX) score, Av: 1.00
  vigor1 (VIG1) score, Av: 1.00
  vigor2 (VIG2) score, Av: 1.00
[6]
  establishment (EST2) score, Av: 1.00
  phytotoxicity (PPTOX) score, Av: 1.00
  vigor1 (VIG1) score, Av: 1.00
  vigor2 (VIG2) score, Av: 1.00
[7]
  establishment (EST2) score, Av: 5.33 and 5.67
  vigor1 (VIG1) score, Av: 6.00
  vigor2 (VIG2) score, Av: 7.00
[8]
  phytotoxicity (PPTOX) score, Av: 6.00 and 6.33
  vigor1 (VIG1) score, Av: 6.33 and 6.00
  vigor2 (VIG2) score, Av: 7.00
[9]
  establishment (EST2) score, Av: 4.67
  phytotoxicity (PPTOX) score, Av: 5.00
  vigor1 (VIG1) score, Av: 5.00
  vigor2 (VIG2) score, Av: 6.33
[10]
  establishment (EST2) score, Av: 4.67
  vigor1 (VIG1) score, Av: 5.00
  vigor2 (VIG2) score, Av: 6.00 and 5.67
[11]
  establishment (EST2) score, Av: 5.00
  phytotoxicity (PPTOX) score, Av: 5.00
  vigor1 (VIG1) score, Av: 5.00
  vigor2 (VIG2) score, Av: 5.67 and 5.33
[12]
  phytotoxicity (PPTOX) score, Av: 4.00
  vigor1 (VIG1) score, Av: 3.67
  vigor2 (VIG2) score, Av: 4.33 and 5.00
[13]
  establishment (EST2) score, Av: 1.00 and 2.00
  phytotoxicity (PPTOX) score, Av: 1.00
  vigor1 (VIG1) score, Av: 1.00 and 1.33
  vigor2 (VIG2) score, Av: 1.00
[14]
  establishment (EST2) score, Av: 4.33 and 5.00
  phytotoxicity (PPTOX) score, Av: 1.33 and 1.67 and 2.33
  vigor1 (VIG1) score, Av: 3.00
  vigor2 (VIG2) score, Av: 1.67 and 2.00
[15]
  establishment (EST2) score, Av: 1.00
  phytotoxicity (PPTOX) score, Av: 1.00
  vigor1 (VIG1) score, Av: 1.00
  vigor2 (VIG2) score, Av: 1.00
[16]
  establishment (EST2) score, Av: 3.67 and 4.00 and 3.00
  phytotoxicity (PPTOX) score, Av: 1.00 and 1.33
  vigor1 (VIG1) score, Av: 1.33
  vigor2 (VIG2) score, Av: 1.33 and 1.67
[17]
  establishment (EST2) score, Av: 1.00
  phytotoxicity (PPTOX) score, Av: 1.00
  vigor1 (VIG1) score, Av: 1.00
  vigor2 (VIG2) score, Av: 1.00
[18]
  establishment (EST2) score, Av: 1.33 and 2.00
  phytotoxicity (PPTOX) score, Av: 1.00 and 2.00
  vigor1 (VIG1) score, Av: 1.33
  vigor2 (VIG2) score, Av: 1.33 and 1.00
10 g a.i./ha (treatment B) pre-planting, Location A
  vigor3 (VIG3) score, Av: 1.00
10 g a.i./ha (treatment B) pre-planting, Location B
  vigor3 (VIG3) score, Av: 3.67
20 g a.i./ha (treatment C) pre-planting, Location A
  vigor3 (VIG3) score, Av: 1.00
20 g a.i./ha (treatment C) pre-planting, Location B
  vigor3 (VIG3) score, Av: 1.00
30 g a.i./ha (treatment D) pre-planting, Location A
  vigor3 (VIG3) score, Av: 1.00
30 g a.i./ha (treatment D) pre-planting, Location B
  vigor3 (VIG3) score, Av: 1.00
[19]
  establishment (EST2) score, Av: 2.00
  phytotoxicity (PPTOX) score, Av: 1.00
  vigor1 (VIG1) score, Av: 1.00
  vigor2 (VIG2) score, Av: 1.00
[20]
  establishment (EST2) score, Av: 6.00
  phytotoxicity (PPTOX) score, Av: 3.67
  vigor1 (VIG1) score, Av: 4.00
  vigor2 (VIG2) score, Av: 4.00
[21]
  establishment (EST2) score, Av: 2.33
  phytotoxicity (PPTOX) score, Av: 1.00
  vigor1 (VIG1) score, Av: 1.33
  vigor2 (VIG2) score, Av: 1.00
[22]
  establishment (EST2) score, Av: 4.67
  phytotoxicity (PPTOX) score, Av: 1.67
  vigor1 (VIG1) score, Av: 2.00
  vigor2 (VIG2) score, Av: 2.00
[23]
  establishment (EST2) score, Av: 2.00
  phytotoxicity (PPTOX) score, Av: 1.00
  vigor1 (VIG1) score, Av: 1.00
  vigor2 (VIG2) score, Av: 1.00
[24]
  establishment (EST2) score, Av: 4.00
  phytotoxicity (PPTOX) score, Av: 1.00
  vigor1 (VIG1) score, Av: 1.33
  vigor2 (VIG2) score, Av: 1.00
[25]
  emergence (ERG) score Av: 2.00
  establishment (EST1) score Av, 14 days after sowing: 2.00
[26]
  emergence (ERG) score Av: 5.00
  establishment (EST1) score Av, 14 days after sowing: 6.67
[27]
  emergence (ERG) score Av: 2.33
  establishment (EST1) score Av, 14 days after sowing: 2.33
[28]
  emergence (ERG) score Av: 4.33
  establishment (EST1) score Av, 14 days after sowing: 4.67
[29]
  emergence (ERG) score Av: 2.00
  establishment (EST1) score Av, 14 days after sowing: 2.00
[30]
  emergence (ERG) score Av: 3.00
  establishment (EST1) score Av, 14 days after sowing: 4.00
[31]
  relative contribution of HETO104 (AHAS3 KO) to herbicide tolerance conferred by HETO108 (AHAS1 missense): ERG: 0.86
  relative contribution of HETO104 (AHAS3 KO) to herbicide tolerance conferred by HETO108 (AHAS1 missense): EST1: 0.91
  relative contribution of HETO104 (AHAS3 KO) to herbicide tolerance conferred by HETO108 (AHAS1 missense): EST2: 0.95
  relative contribution of HETO104 (AHAS3 KO) to herbicide tolerance conferred by HETO108 (AHAS1 missense): PPTOX: 0.83
  relative contribution of HETO104 (AHAS3 KO) to herbicide tolerance conferred by HETO108 (AHAS1 missense): VIG1: 0.90
  relative contribution of HETO104 (AHAS3 KO) to herbicide tolerance conferred by HETO108 (AHAS1 missense): VIG2: 0.88
  relative contribution of HETO104 (AHAS3 KO) to herbicide tolerance conferred by HETO108 (AHAS1 missense): VIG3: 0.96
  relative contribution of HETO112 (AHAS1 KO) to herbicide tolerance conferred by HETO111 (AHAS3 missense): ERG: 0.85
  relative contribution of HETO112 (AHAS1 KO) to herbicide tolerance conferred by HETO111 (AHAS3 missense): EST1: 0.92
  relative contribution of HETO112 (AHAS1 KO) to herbicide tolerance conferred by HETO111 (AHAS3 missense): EST2: 1.04
  relative contribution of HETO112 (AHAS1 KO) to herbicide tolerance conferred by HETO111 (AHAS3 missense): PPTOX: 1.06
  relative contribution of HETO112 (AHAS1 KO) to herbicide tolerance conferred by HETO111 (AHAS3 missense): VIG1: 1.10
